Key:
Aiolos = test: IMiD activity: Aiolos degradation in PBMCs by flow cytometry; type: cell-based; conditions: human PBMCs, 24 hours; for Dmax: maximum percent Aiolos degradation in the assay; for DC50: compound concentration degrading 50% of Aiolos
Experimental: In addition, Compounds 1-24 were assayed for IMiD activity. Frozen human peripheral blood mononuclear cells (PBMCs) were thawed and treated with DMSO or compound for 24 hours and then fixed and permeabilized using a Foxp3/Transcription Factor Fixation/Permeabilization Kit (eBioscience, 00-5523). Cells were stained with fluorophore-conjugated antibodies against CD20 (Biolegend 302330), CD3 (BD Pharmingen 552127), and Aiolos (Biolegend 371106). An additional set of DMSO-treated PBMCs was stained for CD20, CD3, and an AlexaFluor 647-conjugated mouse IgG1 isotype control antibody (Biolegend 400136). Stained cells were run on an Attune NxT Acoustic Focusing Flow Cytometer (Thermo-Fisher A29004), and data was analyzed using FlowJo (v10.5.3) and GraphPad Prism (v7.00) software. Single lymphocytes were gated for B cells (CD20+CD3-) and T cells (CD3+CD20-), and the geometric mean fluorescence intensity (MFI) of Aiolos was calculated for each population. The MFI of the isotype control was calculated for each population and used to quantify background staining. Percent Aiolos degradation was calculated for each compound-treated sample using the following equation: […]
DC50 is the compound concentration degrading 50% of Aiolos. Dmax is the maximum percent Aiolos degradation in the assay.

[1] = test system: Experimental autoimmune encephalomyelitis (EAE); test: Experimental autoimmune encephalomyelitis (EAE) model; type: in vivo, C57BL/6 mice; conditions: EAE, 30 mg/kg, spinal cords collected on day 22
Experimental: EAE was induced in C57BL/6 mice by immunization with an emulsion of MOG1-125 in complete Freund's adjuvant (CFA), followed by administration of pertussis toxin in PBS, first on the day of immunization (Day 0) and then again the following day (Day 1).
Dosing of all mice started on Day −1 and continued through Day 22. Fingolimod (FTY720, Gilenya) is the a commonly used positive control in this model.
Statistical significance was determined between vehicle control and treated groups based on the end clinical scores using Wilcoxon's non-parametric test.
Statistical analysis: Demyelination (anti-MBP) with Wilcoxon's non-parametric test; inflammatory foci or apoptosis with two-tailed Student's t-test.

Structure (SMILES)	Dmax (Aiolos)	DC50 (Aiolos)	further results
CN1CCN([C@@H]2CCCN(c3cnc(C(N)=O)c(Nc4ccc(C5(C)CCN(C6CN(Cc7ccc8c(c7)C(=O)N(C7CCC(=O)NC7=O)C8=O)C6)CC5)cc4)n3)C2)C1=O (some centres unmarked) [Compound 16]	23.6%		
CN1CCN([C@@H]2CCCN(c3cnc(C(N)=O)c(Nc4ccc(C5CCN(CC6CCN(c7ccc(C(=O)NC8CCC(=O)NC8=O)cc7)CC6)CC5)cc4)n3)C2)C1=O (mixture of isomers) [Compound 5, 3-((4-(1-((1-(4-(((RS)-2,6-dioxopiperidin-3-yl)carbamoyl)phenyl)piperidin-4-yl)methyl)piperidin-4-yl)phenyl)amino)-5-((R)-3-(3-methyl-2-oxoimidazolidin-1-yl)piperidin-1-yl)pyrazine-2-carboxamide]	10.1%	468 nM	
CN1CCN([C@@H]2CCCN(c3cnc(C(N)=O)c(Nc4ccc(C5CCN(C[C@H]6CC[C@@H](Nc7cccc8c7C(=O)N([C@@H]7CCC(=O)NC7=O)C8=O)CC6)CC5)cc4)n3)C2)C1=O (racemic) [Compound 9, 5-[(3R)-3-(3-methyl-2-oxoimidazolidin-1-yl)piperidin-1-yl]-3-{[4-(1-{[(1 s,4s)-4-{[2-(2,6-dioxopiperidin-3-yl)-1,3-dioxoisoindol-4-yl]amino}cyclohexyl]methyl}piperidin-4-yl)phenyl]amino}pyrazine-2-carboxamide]	30.8%	96.6 nM	
CN1CCN([C@@H]2CCCN(c3cnc(C(N)=O)c(Nc4ccc(C5CCN(CC6CCN(c7ccc(C(=O)N[C@@H]8CCC(=O)NC8=O)nc7)CC6)CC5)cc4)n3)C2)C1=O [Compound 2]	17.9%	596 nM	
CN1CCN([C@@H]2CCCN(c3cnc(C(N)=O)c(Nc4ccc(N5CCC6(CCCN(c7ccc8c(c7)C(=O)N(C7CCC(=O)NC7=O)C8=O)C6)CC5)cc4)n3)C2)C1=O (some centres unmarked) [Compound 18]	28.2%	2650 nM	
NC(=O)c1ncc(N2CCCCC2)nc1Nc1ccc2c(c1)CCN(CC1CCN(c3ccc(C(=O)NC4CCC(=O)NC4=O)nc3)CC1)C2 (racemic) [Compound 4, rac-3-[(2-{[1-(6-{[(3R)-2,6-dioxopiperidin-3-yl]carbamoyl}pyridin-3-yl)piperidin-4-yl]methyl}-3,4-dihydro-1H-isoquinolin-6-yl)amino]-5-(piperidin-1-yl)pyrazine-2-carboxamide]	28.3%	344 nM	
CN1CCN([C@@H]2CCCN(c3cnc(C(N)=O)c(Nc4ccc(C5CCN(CC6CCN(c7ccc(OC8CCC(=O)NC8=O)cn7)CC6)CC5)cc4)n3)C2)C1=O (some centres unmarked) [Compound 13]	4.9%	2.89 nM	
CN1CCN([C@@H]2CCCN(c3cnc(C(N)=O)c(Nc4ccc(C5CCN(CC6CCN(c7cnc(C(=O)NC8CCC(=O)NC8=O)nc7)CC6)CC5)cc4)n3)C2)C1=O (mixture of isomers) [Compound 3, 5-(4-((4-(4-((3-carbamoyl-6-((R)-3-(3-methyl-2-oxoimidazolidin-1-yl)piperidin-1-yl)pyrazin-2-yl)amino)phenyl)piperidin-1-yl)methyl)piperidin-1-yl)-N—((RS)-2,6-dioxopiperidin-3-yl)pyrimidine-2-carboxamide]	3.2%		
Cn1c(=O)n([C@@H]2CCC(=O)NC2=O)c2ccc(N3CC[C@H](CN4CCC(c5ccc(Nc6nc(N7CCCCC7)cnc6C(N)=O)cc5)CC4)C3)cc21 [Compound 6]	1.1%		
NC(=O)c1ncc(N2CCCCC2)nc1Nc1ccc(C2CCN(CC3CCN(c4ccc(CC5CCC(=O)NC5=O)cn4)CC3)CC2)cc1 (centres unmarked) [Compound 10]	3.2%		
Cn1c(=O)n([C@@H]2CCC(=O)NC2=O)c2ccc(N3CC[C@@H](CN4CCC(c5ccc(Nc6nc(N7CCCCC7)cnc6C(N)=O)cc5)CC4)C3)cc21 [Compound 7]	4.6%		
CN1CCN([C@H]2CCCN(c3cnc(C(N)=O)c(Nc4ccc(C5CCN(CC6CCN(c7ccc(C(=O)NC8CCC(=O)NC8=O)nc7)CC6)CC5)cc4)n3)C2)C1=O (some centres unmarked) [Compound 15]	27.4%	345 nM	
NC(=O)c1ncc(N2CCCCC2)nc1Nc1ccc(N2CCC3(CCN(Cc4ccc5c(c4)C(=O)N(C4CCC(=O)NC4=O)C5=O)CC3)CC2)cc1 (centres unmarked) [Compound 14]	30.4%	37.6 nM	
C=CC(=O)N1CCC[C@@H](n2nc(-c3ccc(Oc4ccccc4)cc3)c3c(N)ncnc32)C1 [Ibrutinib, reference compound]			Apoptotic cells/section +/− SD [1]: 0.4 +/− 0.7; Inflammatory foci/section +/− SD [1]: 1.0 +/− 1.4; Demyelination score +/− SD ([1]; anti-MBP): 0.4 +/− 0.6
CN1CCN([C@@H]2CCCN(c3cnc(C(N)=O)c(Nc4ccc(C5CCN(CC6CCN(c7ccc8c(c7)n(C)c(=O)n8C7CCC(=O)NC7=O)CC6)CC5)cc4)n3)C2)C1=O (some centres unmarked) [Compound 12]	5.3%		
CN1CCN([C@@H]2CCCN(c3cnc(C(N)=O)c(Nc4ccc(C5CCN(CC6CCN(c7ncc(C(=O)NC8CCC(=O)NC8=O)o7)CC6)CC5)cc4)n3)C2)C1=O (some centres unmarked) [Compound 11]	1.9%		
CN1CCN([C@@H]2CCCN(c3cnc(C(N)=O)c(Nc4ccc(N5CCN(C(=O)CCOCCCc6ccc7c(c6)C(=O)N(C6CCC(=O)NC6=O)C7)CC5)cc4)n3)C2)C1=O (some centres unmarked) [Compound 19]	9.1%		
CN1CCN([C@H]2CCCN(c3cnc(C(N)=O)c(Nc4ccc(N5CCN(CC#Cc6cccc7c6CN(C6CCC(=O)NC6=O)C7=O)CC5)cc4)n3)C2)C1=O (some centres unmarked) [Compound 17]	15.1%		
CN1CCN([C@@H]2CCCN(c3cnc(C(N)=O)c(Nc4ccc(C5CCN(C[C@@H]6CCN(c7ccc8c(c7)n(C)c(=O)n8C7CCC(=O)NC7=O)C6)CC5)cc4)n3)C2)C1=O (mixture of isomers) [Compound 8, 3-((4-(1 (((3 S)-1-(1-(2,6-dioxopiperidin-3-yl)-3-methyl-2-oxo-2,3-dihydro-1H-benzo[d]imidazol-5-yl)pyrrolidin-3-yl)methyl)piperidin-4-yl)phenyl)amino)-5-((R)-3-(3-methyl-2-oxoimidazolidin-1-yl)piperidin-1-yl)pyrazine-2-carboxamide]	1.0%		
